# From article PMC8185074, “Anchor extension: a structure-guided approach to design cyclic peptides targeting enzyme active sites” (Nature Communications, 2021)
# Peptide text beside a SMILES is read from it.
# Key:
# Format in all cases: biochemical
# HDAC6 = target: T1, HDAC6 (Homo sapiens, UniProt Q9UBN7); experiment: HDAC6 inhibition, full IC50 measurement (Reaction Biology; fluorogenic p53 peptide RHKK(Ac)AMC)
# T1 construct: purchased Reaction Biology Corporation (assay run by the CRO)
# T1 sequence (Q9UBN7 1-1215): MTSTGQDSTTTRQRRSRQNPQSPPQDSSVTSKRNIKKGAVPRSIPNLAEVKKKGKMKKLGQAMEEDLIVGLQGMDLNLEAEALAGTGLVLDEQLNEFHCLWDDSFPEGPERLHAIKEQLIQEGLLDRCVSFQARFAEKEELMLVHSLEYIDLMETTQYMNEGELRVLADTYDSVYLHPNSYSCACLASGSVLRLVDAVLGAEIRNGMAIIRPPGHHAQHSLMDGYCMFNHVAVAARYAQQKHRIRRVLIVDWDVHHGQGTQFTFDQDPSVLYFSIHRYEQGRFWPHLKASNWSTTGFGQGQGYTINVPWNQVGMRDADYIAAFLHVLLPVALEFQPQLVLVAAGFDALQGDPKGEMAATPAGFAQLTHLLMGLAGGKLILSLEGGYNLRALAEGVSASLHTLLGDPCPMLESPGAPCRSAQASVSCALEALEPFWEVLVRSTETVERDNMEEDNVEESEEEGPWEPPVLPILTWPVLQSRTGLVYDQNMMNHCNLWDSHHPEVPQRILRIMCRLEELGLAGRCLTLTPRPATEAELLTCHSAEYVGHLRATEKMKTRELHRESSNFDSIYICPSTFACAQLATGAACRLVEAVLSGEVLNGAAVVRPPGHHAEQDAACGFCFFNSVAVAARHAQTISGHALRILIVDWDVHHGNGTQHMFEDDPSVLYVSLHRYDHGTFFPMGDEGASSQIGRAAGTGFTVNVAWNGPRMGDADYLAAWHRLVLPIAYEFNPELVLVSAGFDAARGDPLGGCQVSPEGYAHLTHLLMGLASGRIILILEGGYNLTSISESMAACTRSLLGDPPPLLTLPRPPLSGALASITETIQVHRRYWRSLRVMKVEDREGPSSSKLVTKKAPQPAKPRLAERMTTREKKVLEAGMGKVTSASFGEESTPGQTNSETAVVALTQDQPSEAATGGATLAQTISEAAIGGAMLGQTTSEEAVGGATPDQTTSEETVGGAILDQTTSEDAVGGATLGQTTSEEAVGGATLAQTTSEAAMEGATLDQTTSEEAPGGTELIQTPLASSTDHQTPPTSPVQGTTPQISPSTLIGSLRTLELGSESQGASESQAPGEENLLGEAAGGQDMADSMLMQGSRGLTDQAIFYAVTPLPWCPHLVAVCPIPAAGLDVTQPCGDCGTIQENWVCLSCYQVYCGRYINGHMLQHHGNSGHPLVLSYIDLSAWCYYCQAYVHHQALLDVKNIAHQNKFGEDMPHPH
# Summary of the method: (§1)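 Deacetylation of 50 μM RHKK(Ac)AMC is measured after 1 h at 30 °C in pH 8.0 Tris buffer (1% DMSO, 1 mg/ml BSA). Developer ends the reaction; the post-plateau 360/460 nm signal is fitted to IC50, averaging replicate measurements.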
# HDAC3 = target: T2, HDAC3 (Homo sapiens, UniProt O15379); experiment: HDAC3 inhibition, full IC50 measurement (Reaction Biology; fluorogenic p53 peptide RHKK(Ac)AMC)
# T2 construct: purchased Reaction Biology Corporation (assay run by the CRO)
# T2 sequence (O15379 whole entry): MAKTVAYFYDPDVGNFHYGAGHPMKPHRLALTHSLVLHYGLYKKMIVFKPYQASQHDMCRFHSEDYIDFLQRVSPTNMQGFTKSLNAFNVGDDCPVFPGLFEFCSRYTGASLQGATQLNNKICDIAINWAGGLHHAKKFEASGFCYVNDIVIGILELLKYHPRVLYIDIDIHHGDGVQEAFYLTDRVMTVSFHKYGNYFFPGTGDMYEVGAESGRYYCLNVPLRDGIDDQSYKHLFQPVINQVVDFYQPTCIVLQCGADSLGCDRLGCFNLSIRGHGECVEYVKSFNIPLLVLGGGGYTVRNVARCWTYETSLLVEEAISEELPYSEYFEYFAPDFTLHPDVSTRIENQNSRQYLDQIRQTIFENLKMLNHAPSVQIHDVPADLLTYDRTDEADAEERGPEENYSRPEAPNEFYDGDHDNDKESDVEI
# T2 sequence (Q9Y618 395-489 partner limits assumed): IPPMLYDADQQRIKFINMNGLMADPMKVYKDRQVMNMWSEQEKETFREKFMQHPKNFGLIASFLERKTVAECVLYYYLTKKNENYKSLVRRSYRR
# Summary of the method: as §1
# HDAC2 = target: T3, HDAC2 (Homo sapiens, UniProt Q92769); experiment: Initial HDAC2 IC50 estimate (BPS Biosciences HDAC fluorogenic assay kit); details: Supplementary Dataset 2; read-out: HDAC2 activity (initial activity)
# T3 construct: purchased Reaction Biology Corporation (assay run by the CRO)
# T3 sequence (Q92769 whole entry): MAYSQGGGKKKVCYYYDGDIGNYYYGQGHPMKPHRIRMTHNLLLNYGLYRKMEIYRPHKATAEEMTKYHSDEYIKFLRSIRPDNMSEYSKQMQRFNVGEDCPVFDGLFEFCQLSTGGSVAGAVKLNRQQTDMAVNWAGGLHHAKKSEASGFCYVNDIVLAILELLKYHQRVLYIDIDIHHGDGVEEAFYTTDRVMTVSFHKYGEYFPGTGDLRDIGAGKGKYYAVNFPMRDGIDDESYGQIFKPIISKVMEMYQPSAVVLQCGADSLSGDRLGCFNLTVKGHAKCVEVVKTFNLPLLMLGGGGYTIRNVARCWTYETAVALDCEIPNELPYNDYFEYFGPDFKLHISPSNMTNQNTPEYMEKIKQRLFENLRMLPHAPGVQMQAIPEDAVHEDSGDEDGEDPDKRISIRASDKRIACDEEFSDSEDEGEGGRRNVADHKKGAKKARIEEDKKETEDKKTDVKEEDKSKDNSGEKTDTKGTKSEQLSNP
# Summary of the method: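 Inhibition measured by kit-based fluorogenic HDAC activity assays, with each point in duplicate or triplicate. Values come from a full 1 µM–100 pM series (1:10 steps) or are range estimates from just 20 nM and 200 nM.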
compound,measurement,setting,value
"CC(C)[C@@H]1NC(=O)[C@H](CCCNC(=N)N)NC(=O)[C@@H](CC(=O)O)NC(=O)[C@H](CO)NC(=O)[C@@H](CO)NC(=O)[C@@H](CCC(=O)O)NC(=O)[C@H](Cc2ccc(O)cc2)NC(=O)[C@H](CCCCCS)NC1=O [des4.2.0, SHA-Tyr-dGlu-dSer-Ser-dAsp-Arg-Val] (HELM PEPTIDE1{R.V.[O=C([C@H](CCCCCS)N[*:1])[*:2]].Y.[dE].[dS].S.[dD]}$PEPTIDE1,PEPTIDE1,1:R1-8:R2$$$V2.0)",HDAC6 activity raw data (signal),"HDAC6; Conc. 1.00E-05 M, t1",-7055
same,HDAC6 activity raw data (signal),"HDAC6; Conc. 1.00E-05 M, t2",-3082
same,HDAC6 activity raw data (signal),"HDAC6; Conc. 1.11E-06 M, t1",103285
same,HDAC6 activity raw data (signal),"HDAC6; Conc. 1.11E-06 M, t2",106610
same,HDAC6 activity raw data (signal),"HDAC6; Conc. 1.23E-07 M, t1",299609
same,HDAC6 activity raw data (signal),"HDAC6; Conc. 1.23E-07 M, t2",290391
same,HDAC6 activity raw data (signal),"HDAC6; Conc. 1.37E-08 M, t1",820280
same,HDAC6 activity raw data (signal),"HDAC6; Conc. 1.37E-08 M, t2",820159
same,HDAC6 activity raw data (signal),"HDAC6; Conc. 1.52E-09 M, t1",1558048
same,HDAC6 activity raw data (signal),"HDAC6; Conc. 1.52E-09 M, t2",1527304
same,HDAC6 activity raw data (signal),"HDAC6; Conc. 3.33E-06 M, t1",43007
same,HDAC6 activity raw data (signal),"HDAC6; Conc. 3.33E-06 M, t2",45218
same,HDAC6 activity raw data (signal),"HDAC6; Conc. 3.70E-07 M, t1",181567
same,HDAC6 activity raw data (signal),"HDAC6; Conc. 3.70E-07 M, t2",190636
same,HDAC6 activity raw data (signal),"HDAC6; Conc. 4.12E-08 M, t1",459108
same,HDAC6 activity raw data (signal),"HDAC6; Conc. 4.12E-08 M, t2",432840
same,HDAC6 activity raw data (signal),"HDAC6; Conc. 4.57E-09 M, t1",1111578
same,HDAC6 activity raw data (signal),"HDAC6; Conc. 4.57E-09 M, t2",1107939
same,HDAC6 activity raw data (signal),"HDAC6; Conc. 5.08E-10 M, t1",1904356
same,HDAC6 activity raw data (signal),"HDAC6; Conc. 5.08E-10 M, t2",1828745
same,selectivity for HDAC6 over HDAC8,HDAC6; Supp. Table 8,80 fold
same,selectivity for HDAC6 over HDACs1/2/3,HDAC6; Supp. Table 8,> 10 fold
same,IC50,"HDAC6; figure legends, Supp. Tables 1 and 8, read-out: HDAC6 IC50",4.4 nM
same,HDAC3 activity raw data (signal),"HDAC3; Conc. 1.00E-05 M, t1",26422
same,HDAC3 activity raw data (signal),"HDAC3; Conc. 1.00E-05 M, t2",22359
same,HDAC3 activity raw data (signal),"HDAC3; Conc. 1.11E-06 M, t1",160928
same,HDAC3 activity raw data (signal),"HDAC3; Conc. 1.11E-06 M, t2",163740
same,HDAC3 activity raw data (signal),"HDAC3; Conc. 1.23E-07 M, t1",525206
same,HDAC3 activity raw data (signal),"HDAC3; Conc. 1.23E-07 M, t2",581691
same,HDAC3 activity raw data (signal),"HDAC3; Conc. 1.37E-08 M, t1",1076943
same,HDAC3 activity raw data (signal),"HDAC3; Conc. 1.37E-08 M, t2",1111273
same,HDAC3 activity raw data (signal),"HDAC3; Conc. 1.52E-09 M, t1",1186064
same,HDAC3 activity raw data (signal),"HDAC3; Conc. 1.52E-09 M, t2",1359852
same,HDAC3 activity raw data (signal),"HDAC3; Conc. 3.33E-06 M, t1",71800
same,HDAC3 activity raw data (signal),"HDAC3; Conc. 3.33E-06 M, t2",63219
same,HDAC3 activity raw data (signal),"HDAC3; Conc. 3.70E-07 M, t1",296381
same,HDAC3 activity raw data (signal),"HDAC3; Conc. 3.70E-07 M, t2",296142
same,HDAC3 activity raw data (signal),"HDAC3; Conc. 4.12E-08 M, t1",806773
same,HDAC3 activity raw data (signal),"HDAC3; Conc. 4.12E-08 M, t2",863981
same,HDAC3 activity raw data (signal),"HDAC3; Conc. 4.57E-09 M, t1",1182733
same,HDAC3 activity raw data (signal),"HDAC3; Conc. 4.57E-09 M, t2",1313514
same,HDAC3 activity raw data (signal),"HDAC3; Conc. 5.08E-10 M, t1",1345816
same,HDAC3 activity raw data (signal),"HDAC3; Conc. 5.08E-10 M, t2",1394913
same,IC50,HDAC3; Supp. Table 1,71.2 nM
same,IC50,HDAC2,200 nM
